By IC50 is commonly meant the concentration that inhibits the measured activity by half.

This note sets out measurements from patent US5081284A, “Proteinase inhibitor” (Suntory Limited, priority 1989, dated 1992).

Where two headings read alike, the source gives them in different places. Peptide text beside a SMILES is read from it. * marks the point of attachment. Cbz = O=C(OCc1ccccc1)*

The target of one assay is T1, calpain I (Homo sapiens, UniProt P07384).
T1 sequence (P07384 1-714): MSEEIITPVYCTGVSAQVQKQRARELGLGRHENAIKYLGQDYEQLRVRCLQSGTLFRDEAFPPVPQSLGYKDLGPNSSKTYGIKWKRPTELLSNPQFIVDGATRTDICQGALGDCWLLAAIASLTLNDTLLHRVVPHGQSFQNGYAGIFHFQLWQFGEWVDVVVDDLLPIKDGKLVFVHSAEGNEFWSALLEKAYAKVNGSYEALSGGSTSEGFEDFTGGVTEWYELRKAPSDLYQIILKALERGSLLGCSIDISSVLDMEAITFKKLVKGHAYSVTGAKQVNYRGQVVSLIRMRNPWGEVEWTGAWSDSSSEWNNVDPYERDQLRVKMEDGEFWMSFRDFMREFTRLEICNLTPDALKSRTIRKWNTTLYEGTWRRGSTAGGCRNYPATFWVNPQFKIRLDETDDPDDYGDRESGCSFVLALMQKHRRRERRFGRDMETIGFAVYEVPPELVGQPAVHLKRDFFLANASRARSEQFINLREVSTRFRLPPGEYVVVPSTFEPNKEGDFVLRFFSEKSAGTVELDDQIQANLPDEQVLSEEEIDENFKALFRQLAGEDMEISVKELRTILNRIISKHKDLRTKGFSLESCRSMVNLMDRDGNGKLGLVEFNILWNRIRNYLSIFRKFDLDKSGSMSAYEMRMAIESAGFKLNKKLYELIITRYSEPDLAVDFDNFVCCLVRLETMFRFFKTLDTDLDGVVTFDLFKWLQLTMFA
T1 sequence (P04632 1-268 partner): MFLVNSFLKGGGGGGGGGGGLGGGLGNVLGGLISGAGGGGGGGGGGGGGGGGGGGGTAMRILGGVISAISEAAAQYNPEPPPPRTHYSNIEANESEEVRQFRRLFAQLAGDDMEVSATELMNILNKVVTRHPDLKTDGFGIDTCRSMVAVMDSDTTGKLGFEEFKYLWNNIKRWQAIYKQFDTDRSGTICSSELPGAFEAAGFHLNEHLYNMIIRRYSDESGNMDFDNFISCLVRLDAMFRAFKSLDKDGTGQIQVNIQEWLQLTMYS
Kind of assay: Anti-calpain activity, calpain I (casein hydrolysis, Ross-Schatz method). In kind it is biochemical.

The next assay addresses T2, calpain II (Homo sapiens, UniProt P17655).
T2 sequence (P17655 1-700): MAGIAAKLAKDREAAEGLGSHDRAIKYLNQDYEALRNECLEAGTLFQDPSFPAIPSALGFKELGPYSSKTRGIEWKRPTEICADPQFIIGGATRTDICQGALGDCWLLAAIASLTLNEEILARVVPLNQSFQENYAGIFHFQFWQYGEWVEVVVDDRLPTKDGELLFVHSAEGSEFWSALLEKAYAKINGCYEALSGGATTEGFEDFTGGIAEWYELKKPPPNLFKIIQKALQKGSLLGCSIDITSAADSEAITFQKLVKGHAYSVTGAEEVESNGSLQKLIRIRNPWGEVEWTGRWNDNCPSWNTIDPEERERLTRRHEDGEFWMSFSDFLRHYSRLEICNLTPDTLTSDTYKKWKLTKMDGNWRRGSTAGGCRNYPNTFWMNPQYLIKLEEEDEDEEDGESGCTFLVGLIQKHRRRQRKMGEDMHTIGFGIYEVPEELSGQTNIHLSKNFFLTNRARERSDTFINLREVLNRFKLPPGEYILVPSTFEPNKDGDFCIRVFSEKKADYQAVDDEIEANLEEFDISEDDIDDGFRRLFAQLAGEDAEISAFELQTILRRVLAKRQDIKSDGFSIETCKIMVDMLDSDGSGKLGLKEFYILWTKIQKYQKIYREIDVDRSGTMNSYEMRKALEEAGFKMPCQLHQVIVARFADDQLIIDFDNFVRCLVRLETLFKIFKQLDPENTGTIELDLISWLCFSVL
T2 sequence (P04632 1-268 partner): T1 sequence (P04632 1-268 partner)
Kind of assay: Anti-calpain activity, calpain II (casein hydrolysis, Ross-Schatz method). In kind it is biochemical.

In the next assay the target is T3, papain (Carica papaya, UniProt P00784).
T3 sequence (P00784 134-345): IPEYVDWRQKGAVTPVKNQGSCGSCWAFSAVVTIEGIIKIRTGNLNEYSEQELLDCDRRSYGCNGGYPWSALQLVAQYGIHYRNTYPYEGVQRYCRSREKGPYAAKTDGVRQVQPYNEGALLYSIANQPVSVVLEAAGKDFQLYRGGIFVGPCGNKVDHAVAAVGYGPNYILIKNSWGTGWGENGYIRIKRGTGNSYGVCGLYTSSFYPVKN
Kind of assay: Anti-papain activity (casein hydrolysis, Lowry-Folin method). It counts as biochemical. The procedure: (§1) A mixture of a test compound of the present invention, papain (0.015 units) and a citrate buffer solution (20 mM, pH=6.2,1 ml) containing EDTA (0.88 mg) was preincubated at 30° C. for 5 minutes and a substrate solution (1 ml) was added to start the reaction. The substrate was a 1% solution of casein in the citrate buffer. The reaction was performed at 30° C. for 20 minutes. The reaction was quenched by adding 6.5% trichloroacetic acid (3 ml) to the reaction solution. The amount of casein that had been hydrolyzed enzymatically in the trichloroacetic acid soluble fraction was measured by the Lowry-Folin method and the inhibitory activity of the test compound was determined by comparison with the control solution.
as §1, with “pH=6.2, 1” for “pH=6.2,1”

The target in the next assay is cathepsin B (Bos taurus, UniProt P07688). Kind of assay: Anti-cathepsin activity (cathepsin B, benzyloxycarbonyl-L-lysine-p-nitrophenyl ester substrate). The note with it: Table 8 (Example 29); pH 5.1, 30° C., from bovine spleen; read-out: Inhibitory activity toward cathepsin B, IC50. In kind it is biochemical, bovine. The procedure:
A mixture of a test compound of the present invention and an acetate buffer solution (25 mM, pH=5.1, with 1 mM EDTA, 3.15 ml) containing a substrate (benzyloxycarbonyl-L-lysine-p-nitrophenyl ester, 0.114 mg) was preincubated at 30° C. for 1 minute. To the mixture, a solution (0.05 ml) of cathepsin B (derived from bovine spleen; product of Sigma; 0.05 units) in the acetate buffer was added to start the reaction. Immediately after the start of reaction, the change in absorbance at 326 nm was measured and the inhibitory activity of the test compound was determined by comparison with the control solution.

Where [1] appears, read: Table 3 (Example 28), pH 7.5, 30° C., 30 minutes, casein, read-out: Inhibitory activity toward calpain I, IC50.
Where [2] appears, read: Table 4 (Example 28), pH 7.5, 30° C., 30 minutes, casein, read-out: Inhibitory activity toward calpain II, IC50.
Where [3] appears, read: Table 6 (Example 29), pH 7.5, 30° C., 30 minutes, casein, read-out: Inhibitory activity toward calpain I, IC50.
Setting [4] is: Table 5 (Example 29), pH 6.2, 30° C., 20 minutes, casein, read-out: Inhibitory activity toward papain, IC50.
[5] abbreviates: Table 7 (Example 29), pH 7.5, 30° C., 30 minutes, casein, read-out: Inhibitory activity toward calpain II, IC50.
Where [6] appears, read: Table 2 (Example 28), pH 6.2, 30° C., 20 minutes, casein, read-out: Inhibitory activity toward papain, IC50.

With `CC(C)C[C@H](NC(=O)OCc1ccccc1)C(=O)N[C@H](C=O)Cc1ccccc1` [Example 19, N-benzyloxycarbonyl-L-leucyl-L-phenylalaninal] (Cbz-Leu-Phe-aldehyde), the results for the IC50 on calpain I (setting [1]) and at calpain II (setting [2]) were 100 nM and 35 nM, respectively.
As to `CCCC[C@@H](C=O)NC(=O)[C@H](CC(C)C)NC(=O)OCc1ccccc1` [Example 20, N-benzyloxycarbonyl-L-leucyl-L-norleucinal], the IC50 on calpain I (setting [1]) amounted to 52 nM; on calpain I (setting [3]) it was 710 nM; on papain (setting [4]) it was 310 nM; on calpain II (setting [2]), 34 nM; on calpain II (setting [5]), 130 nM.
For the molecule `CCCC[C@H](NC(=O)[C@H](CC(C)C)NC(=O)OCc1ccccc1)C(=O)CCl` [Example 26, N-benzyloxycarbonyl-L-leucine 1s-chloroacetyl-n-pentylamide], the IC50 was determined as 150 nM at calpain I (setting [1]), 12 nM at papain (setting [6]) and 120 nM at calpain II (setting [2]).
As for `CSCC[C@@H](C=O)NC(=O)[C@H](CC(C)C)NC(=O)OCc1ccccc1` [Example 21, N-benzyloxycarbonyl-L-leucyl-L-methioninal] (Cbz-Leu-Met-aldehyde), the IC50 on calpain II (setting [2]) worked out at 25 nM.
Regarding `CCCC[C@@H](C=O)NC(=O)[C@H](CC(C)C)NC(=O)OC12CC3CC(CC(C3)C1)C2` [Example 5, N-adamantyloxycarbonyl-L-leucyl-L-norleucinal], the IC50 at calpain I (setting [3]) was 150 nM; against papain, 210 nM; on cathepsin B, 180 nM.
Regarding `CSCC[C@@H](C=O)NC(=O)[C@H](CC(C)C)NC(=O)CCCc1ccccc1` [Example 24, N-(4-phenyl)butanoyl-L-leucyl-L-methioninal], the IC50 on calpain I (setting [1]) turned out to be 38 nM; on papain (setting [6]), 19 nM; on calpain II (setting [2]) it was 71 nM.
For `CCCCCCCC(=O)N[C@@H](CC(C)C)C(=O)N[C@H](C=O)CCCC` [Example 1, N-caprylyl-L-leucyl-L-norleucinal], the values for the IC50 at calpain I (setting [3]) and at cathepsin B were 160 nM and 110 nM, respectively.
With `CCCC[C@@H](C=O)NC(=O)[C@H](CC(C)C)NS(=O)(=O)c1ccc(C)cc1` [Example 12, N-(p-toluenesulfonyl)-L-leucyl-L-norleucinal], the IC50 at calpain I (setting [3]) was found to be 110 nM; at papain (setting [4]), 180 nM; on cathepsin B, 1200 nM.
In the case of `CCCC[C@H](NC(=O)[C@H](CC(C)C)NC(=O)CCCc1ccccc1)C(=O)CCl` [Example 27, N-(4-phenylbutanoyl)-L-leucyl-L-norleucyl chloromethyl], the 50% inhibitory concentration (IC50) amounted to 71 nM on calpain I (setting [1]), 25 nM on papain (setting [6]) and 140 nM at calpain II (setting [2]).
Turning to `CCCC[C@@H](C=O)NC(=O)[C@H](CC(C)C)NC(=O)OCC[Si](C)(C)C` [Example 11, N-(2-trimethylsilylethyloxycarbonyl)-L-leucyl-L-norleucinal], the IC50 at cathepsin B amounted to 960 nM.
On to `CC(=O)N[C@@H](CC(C)C)C(=O)N[C@@H](CC(C)C)C(=O)N[C@H](C=O)CCCNC(=N)N` [Leupeptin, reference compound], for which the figures for the IC50 against calpain I, at papain (setting [6]) and against calpain II were 210 nM, 53 nM and 940 nM, respectively.
For `CCCC[C@@H](C=O)NC(=O)[C@H](CC(C)C)NC(=O)OCC(Cl)(Cl)Cl` [Example 10, N-(2,2,2-trichloroethyloxycarbonyl)-L-leucyl-L-norleucinal], the figures for the IC50 at calpain I (setting [3]), on papain (setting [4]) and on cathepsin B were 96 nM, 260 nM and 330 nM, respectively.
For `CCCCCC(=O)N[C@@H](CC(C)C)C(=O)N[C@H](C=O)CCCC` [Example 2, N-caproyl-L-leucyl-L-norleucinal], the IC50 at cathepsin B is 9200 nM.
With `CCCC[C@@H](C=O)NC(=O)[C@H](CC(C)C)N1C(=O)c2ccccc2C1=O` [Example 17, N-phthaloyl-L-leucyl-L-norleucinal], the IC50 at cathepsin B worked out at 100000 nM.
As for `CCCC[C@@H](C=O)NC(=O)[C@H](CC(C)C)NC(=O)OC(C)(C)C` [Example 4, N-(t-butyloxycarbonyl)-L-leucyl-L-norleucinal], the IC50 came out at 30 nM on calpain I (setting [3]), 58 nM on cathepsin B and 120 nM on calpain II (setting [5]).
For the molecule `CC(C)C[C@H](NC(=O)CCCc1ccccc1)C(=O)N[C@H](C=O)Cc1ccccc1` [Example 22, N-(4-phenyl)butanoyl-L-leucyl-L-phenylalaninal], the values for the IC50 at papain (setting [6]) and at calpain II (setting [2]) were 18 nM and 29 nM, respectively.
As to `CCCC[C@@H](C=O)NC(=O)[C@H](CC(C)C)NC(=O)CCCc1ccccc1` [Example 23, N-(4-phenylbutanoyl)-L-leucyl-L-norleucinal], the IC50 at calpain I (setting [1]) worked out at 40 nM; at papain (setting [6]), 15 nM; at calpain II (setting [2]) it was 320 nM.
As to `CCCC[C@@H](C=O)NC(=O)[C@H](CC(C)C)NC(c1ccccc1)(c1ccccc1)c1ccccc1` [Example 15, N-triphenylmethyl-L-leucyl-L-norleucinal], on cathepsin B, the IC50 amounted to 32000 nM.
`CCCC[C@@H](C=O)NC(=O)[C@H](CCCC)NC(=O)OCc1ccccc1` [Example 18, N-benzyloxycarbonyl-L-norleucyl-L-norleucinal]: the IC50 turned out to be 700 nM at calpain I (setting [3]) and 110 nM on cathepsin B.
As to `CCCC[C@@H](C=O)NC(=O)[C@H](CC(C)C)NC(C)=CC(=O)c1ccccc1` [Example 16, N-(2-benzoyl-1-methylvinyl)-L-leucyl-L-norleucinal], the IC50 at calpain I (setting [3]) amounted to 400 nM; on papain (setting [4]), 96 nM; on cathepsin B it was 7000 nM.
